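In this assay, cells in 96-well plates receive the compound at five concentrations for 48 hours. Endpoints are linearly interpolated between the surrounding concentrations. GI50: concentration for 50% inhibition of growth.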 Active and inactive are the calls of the source. Rule as the data show it: active = GI50 up to about 1.1 µM and inactive = higher.
Assays:
Test in all cases: NCI-60 cell line screen, 48 h
[1] = tested on: SNB-78
[2] = tested on: KM-20L2
[3] = tested on: M19-MEL
[4] = tested on: HOP-18
[5] = tested on: DMS-114
[6] = tested on: RXF 631
[7] = tested on: DMS-273
[8] = tested on: DLD-1
[9] = tested on: XF498

| SMILES | GI50 [1] | GI50 [2] | GI50 [3] | GI50 [4] | GI50 [5] | GI50 [6] | GI50 [7] | GI50 [8] | GI50 [9] |
| --- | --- | --- | --- | --- | --- | --- | --- | --- | --- |
| COc1cc(/C=C(\C)c2ccc3c(c2)OCO3)cc(OC)c1OC | 37.9 µM (inactive) | 32.4 µM (inactive) | 31.4 µM (inactive) | 64 µM (inactive) | 25.1 µM (inactive) | 28.6 µM (inactive) | 26 µM (inactive) | 18.5 µM (inactive) | – |
| O=C(Cc1ccccc1)NS(=O)(=O)c1ccccc1 | > 100 µM (inactive) | > 100 µM (inactive) | – | > 100 µM (inactive) | > 100 µM (inactive) | > 100 µM (inactive) | > 100 µM (inactive) | > 100 µM (inactive) | > 100 µM (inactive) |
| CCc1cccc(C)c1NC(=O)CC1C(=O)Nc2ccccc2S1(=O)=O (stereo not drawn) | 21.1 µM (inactive) | 18.5 µM (inactive) | 15.5 µM (inactive) | – | 16.8 µM (inactive) | 14.2 µM (inactive) | 7.01 µM (inactive) | 15.8 µM (inactive) | 12.5 µM (inactive) |
| COc1ccc(CCc2ccccc2CC(=O)O)cc1 | > 100 µM (inactive) | > 100 µM (inactive) | > 100 µM (inactive) | > 100 µM (inactive) | > 100 µM (inactive) | – | > 100 µM (inactive) | > 100 µM (inactive) | > 100 µM (inactive) |
| CC1SC2=NC3=C(c4ccccc4C3=O)C(c3ccc(F)cc3)N2C1=O (stereo not drawn) | – | > 100 µM (inactive) | > 100 µM (inactive) | – | 95.7 µM (inactive) | – | > 100 µM (inactive) | > 100 µM (inactive) | 89.7 µM (inactive) |
| COC(=O)[C@@]12OC[C@]34C([C@@H](O)C1O)[C@@]1(C)CC(=O)C(O)=C(C)C1C[C@H]3OC(=O)[C@H](OC(=O)/C=C(/c1ccccc1)C(F)(F)F)[C@H]42 (stereo partly drawn) | 9.1 µM (inactive) | 3.92 µM (inactive) | 1.19 µM (inactive) | 6.3 µM (inactive) | 4.19 µM (inactive) | – | 0.989 µM (active) | 5.41 µM (inactive) | 2.22 µM (inactive) |
| COCC(C)(C)/N=C/N1Cc2cc3ccccc3nc2C1 | – | > 100 µM (inactive) | > 100 µM (inactive) | > 100 µM (inactive) | > 100 µM (inactive) | – | – | > 100 µM (inactive) | > 100 µM (inactive) |
| Nc1ccc(C(=O)N/C(=C\c2ccc3c(c2)OCO3)c2nc3c(O)nc(S)nc3[nH]2)cc1 | > 100 µM (inactive) | > 100 µM (inactive) | > 100 µM (inactive) | – | – | > 100 µM (inactive) | – | > 100 µM (inactive) | > 100 µM (inactive) |
| Nc1ccccc1[S+]([O-])c1ccccc1 (stereo not drawn) | – | > 100 µM (inactive) | > 100 µM (inactive) | > 100 µM (inactive) | > 100 µM (inactive) | – | > 100 µM (inactive) | – | > 100 µM (inactive) |
| C[C@@H]1C2=CC[C@@]3(C)C(CCC3[C@H](C)[C@H]3C[C@@]4(C)O[C@@](c5cccnc5)(O3)OC4(C)C)[C@@H]2C2OC2[C@@]12CCC(=O)O2 (stereo partly drawn) | 85.1 µM (inactive) | 31.8 µM (inactive) | 41.2 µM (inactive) | 20.5 µM (inactive) | 33 µM (inactive) | – | 37.5 µM (inactive) | 49.1 µM (inactive) | – |
| CC(=O)N(C(C)=O)c1c(N)n(C)c(=O)[nH]c1=O | – | > 100 µM (inactive) | > 100 µM (inactive) | – | > 100 µM (inactive) | > 100 µM (inactive) | > 100 µM (inactive) | > 100 µM (inactive) | > 100 µM (inactive) |
| COC1=C(C(=O)OC(C)(C)C)[C@]2(C)C(C(=O)OC(C)(C)C)C(OC)=C(C(=O)OC(C)(C)C)[C@]2(C)C1C(=O)OC(C)(C)C (stereo partly drawn) | > 100 µM (inactive) | > 100 µM (inactive) | > 100 µM (inactive) | > 100 µM (inactive) | 53.1 µM (inactive) | – | 97.7 µM (inactive) | 83.9 µM (inactive) | > 100 µM (inactive) |
| OC1=CN=COc2ccccc21 | > 100 µM (inactive) | > 100 µM (inactive) | > 100 µM (inactive) | – | > 100 µM (inactive) | > 100 µM (inactive) | > 100 µM (inactive) | > 100 µM (inactive) | – |
